# From PubChem BioAssay (NCI)
#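 Following 48 hours of exposure in 96-well plates, responses at five concentrations were used to interpolate endpoints linearly. The concentration for 50% growth inhibition is given as GI50. At the TGI there is no net growth.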
# Tests used:
# Experiment in all cases: NCI tumour cell line growth inhibition, 48 h
# UO-31 renal = system: UO-31 renal
# MDA-MB-435 = system: MDA-MB-435
# IGROV1 ovarian = system: IGROV1 ovarian
# A549 NSCLC = system: A549 NSCLC
# HCC-2998 colon = system: HCC-2998 colon
# SN12C renal = system: SN12C renal
# KM12 colon = system: KM12 colon
# MOLT-4 leukemia = system: MOLT-4 leukemia
# HOP-62 NSCLC = system: HOP-62 NSCLC
# SF-295 CNS = system: SF-295 CNS
# SK-OV-3 ovarian = system: SK-OV-3 ovarian
# HL-60(TB) leukemia = system: HL-60(TB) leukemia
# OVCAR-8 ovarian = system: OVCAR-8 ovarian
# MDA-MB-231 breast = system: MDA-MB-231 breast
# 786-0 renal = system: 786-0 renal
# SW-620 colon = system: SW-620 colon
# NCI-H522 lung = system: NCI-H522 lung
# MDA-MB-468 breast = system: MDA-MB-468 breast
# SF-268 CNS = system: SF-268 CNS
# NCI-H226 lung = system: NCI-H226 lung
# K-562 leukemia = system: K-562 leukemia
# OVCAR-3 ovarian = system: OVCAR-3 ovarian
# A498 renal = system: A498 renal
# CAKI-1 renal = system: CAKI-1 renal
# PC-3 prostate = system: PC-3 prostate
# DU-145 prostate = system: DU-145 prostate
# HS 578T breast = system: HS 578T breast
# UACC-257 melanoma = system: UACC-257 melanoma
# SR leukemia = system: SR leukemia
# CCRF-CEM leukemia = system: CCRF-CEM leukemia
# SF-539 CNS = system: SF-539 CNS
# MALME-3M melanoma = system: MALME-3M melanoma
# RXF 393 renal = system: RXF 393 renal
# MCF7 breast = system: MCF7 breast
# HCT-15 colon = system: HCT-15 colon
# OVCAR-5 ovarian = system: OVCAR-5 ovarian
# TK-10 renal = system: TK-10 renal
# RPMI-8226 leukemia = system: RPMI-8226 leukemia
# UACC-62 melanoma = system: UACC-62 melanoma
# M14 melanoma = system: M14 melanoma
# LOX IMVI melanoma = system: LOX IMVI melanoma
# OVCAR-4 ovarian = system: OVCAR-4 ovarian
# T-47D breast = system: T-47D breast
# U251 CNS = system: U251 CNS
# NCI-H460 lung = system: NCI-H460 lung
# NCI-H23 lung = system: NCI-H23 lung
# SNB-19 CNS = system: SNB-19 CNS
# NCI/ADR-RES ovarian = system: NCI/ADR-RES ovarian
# SK-MEL-2 melanoma = system: SK-MEL-2 melanoma
# EKVX NSCLC = system: EKVX NSCLC
# SNB-75 CNS = system: SNB-75 CNS
# HCT-116 colon = system: HCT-116 colon
# ACHN renal = system: ACHN renal
# HOP-92 NSCLC = system: HOP-92 NSCLC
# SK-MEL-28 melanoma = system: SK-MEL-28 melanoma
# BT-549 breast = system: BT-549 breast
smiles,measurement,setting,value
COc1ccc(N(C)c2cc(C#N)nc3ccccc23)cc1/C=C/C(=O)NO,GI50,UO-31 renal,< 0.01 µM
same,TGI,UO-31 renal,12.1 µM
same,GI50,MDA-MB-435,< 0.01 µM
same,TGI,MDA-MB-435,< 0.01 µM
same,GI50,IGROV1 ovarian,< 0.01 µM
same,TGI,IGROV1 ovarian,4.55 µM
same,GI50,A549 NSCLC,< 0.01 µM
same,TGI,A549 NSCLC,22.4 µM
same,GI50,HCC-2998 colon,< 0.01 µM
same,TGI,HCC-2998 colon,< 0.01 µM
same,GI50,SN12C renal,< 0.01 µM
same,TGI,SN12C renal,5.95 µM
same,GI50,KM12 colon,< 0.01 µM
same,TGI,KM12 colon,1.22 µM
same,GI50,MOLT-4 leukemia,< 0.01 µM
same,TGI,MOLT-4 leukemia,> 35.9 µM
same,GI50,HOP-62 NSCLC,< 0.01 µM
same,TGI,HOP-62 NSCLC,15.3 µM
same,GI50,SF-295 CNS,< 0.01 µM
same,GI50,SK-OV-3 ovarian,< 0.01 µM
same,TGI,SK-OV-3 ovarian,12.4 µM
same,GI50,HL-60(TB) leukemia,< 0.01 µM
same,TGI,HL-60(TB) leukemia,< 0.01 µM
same,GI50,OVCAR-8 ovarian,< 0.01 µM
same,GI50,MDA-MB-231 breast,< 0.01 µM
same,TGI,MDA-MB-231 breast,< 0.01 µM
same,GI50,786-0 renal,< 0.01 µM
same,TGI,786-0 renal,15 µM
same,GI50,SW-620 colon,< 0.01 µM
same,TGI,SW-620 colon,15.2 µM
same,GI50,NCI-H522 lung,< 0.01 µM
same,TGI,NCI-H522 lung,< 0.01 µM
same,GI50,MDA-MB-468 breast,< 0.01 µM
same,TGI,MDA-MB-468 breast,< 0.01 µM
same,GI50,SF-268 CNS,< 0.01 µM
same,TGI,SF-268 CNS,14.2 µM
same,GI50,NCI-H226 lung,< 0.01 µM
same,TGI,NCI-H226 lung,5.82 µM
same,GI50,K-562 leukemia,< 0.01 µM
same,TGI,K-562 leukemia,> 40.3 µM
same,GI50,OVCAR-3 ovarian,< 0.01 µM
same,TGI,OVCAR-3 ovarian,6.18 µM
same,GI50,A498 renal,15.7 µM
same,TGI,A498 renal,54.2 µM
same,GI50,CAKI-1 renal,< 0.01 µM
same,TGI,CAKI-1 renal,6.22 µM
same,GI50,PC-3 prostate,< 0.01 µM
same,TGI,PC-3 prostate,> 40.8 µM
same,GI50,DU-145 prostate,< 0.01 µM
same,TGI,DU-145 prostate,16.8 µM
same,GI50,HS 578T breast,< 0.01 µM
same,TGI,HS 578T breast,9.65 µM
same,GI50,UACC-257 melanoma,1.68 µM
same,TGI,UACC-257 melanoma,20.3 µM
same,GI50,SR leukemia,< 0.01 µM
same,GI50,CCRF-CEM leukemia,< 0.01 µM
same,GI50,SF-539 CNS,< 0.01 µM
same,TGI,SF-539 CNS,< 0.01 µM
same,GI50,MALME-3M melanoma,< 0.01 µM
same,TGI,MALME-3M melanoma,8.74 µM
same,GI50,RXF 393 renal,< 0.0435 µM
same,TGI,RXF 393 renal,3.83 µM
same,GI50,MCF7 breast,< 0.01 µM
same,TGI,MCF7 breast,17.4 µM
same,GI50,HCT-15 colon,< 0.01 µM
same,TGI,HCT-15 colon,19.7 µM
same,GI50,OVCAR-5 ovarian,< 0.01 µM
same,TGI,OVCAR-5 ovarian,10.7 µM
same,GI50,TK-10 renal,2.22 µM
same,TGI,TK-10 renal,57.1 µM
same,GI50,RPMI-8226 leukemia,< 0.01 µM
same,TGI,RPMI-8226 leukemia,19.2 µM
same,GI50,UACC-62 melanoma,< 0.01 µM
same,TGI,UACC-62 melanoma,2.1 µM
same,GI50,M14 melanoma,< 0.01 µM
same,TGI,M14 melanoma,1.86 µM
same,GI50,LOX IMVI melanoma,< 0.01 µM
same,TGI,LOX IMVI melanoma,1.4 µM
same,GI50,OVCAR-4 ovarian,1.19 µM
same,TGI,OVCAR-4 ovarian,16.9 µM
same,GI50,T-47D breast,2.34 µM
same,TGI,T-47D breast,80.1 µM
same,GI50,U251 CNS,< 0.01 µM
same,TGI,U251 CNS,9.38 µM
same,GI50,NCI-H460 lung,< 0.01 µM
same,TGI,NCI-H460 lung,3.65 µM
same,GI50,NCI-H23 lung,< 0.01 µM
same,TGI,NCI-H23 lung,1.25 µM
same,GI50,SNB-19 CNS,< 0.01 µM
same,TGI,SNB-19 CNS,15.1 µM
same,GI50,NCI/ADR-RES ovarian,< 0.01 µM
same,TGI,NCI/ADR-RES ovarian,< 0.01 µM
same,GI50,SK-MEL-2 melanoma,< 0.01 µM
same,TGI,SK-MEL-2 melanoma,0.63 µM
same,GI50,EKVX NSCLC,< 0.01 µM
same,TGI,EKVX NSCLC,13.5 µM
same,GI50,SNB-75 CNS,< 0.01 µM
same,TGI,SNB-75 CNS,2.62 µM
same,GI50,HCT-116 colon,< 0.01 µM
same,TGI,HCT-116 colon,1.39 µM
same,GI50,ACHN renal,< 0.01 µM
same,TGI,ACHN renal,11.7 µM
same,TGI,HOP-92 NSCLC,9.06 µM
same,GI50,SK-MEL-28 melanoma,0.551 µM
same,TGI,SK-MEL-28 melanoma,3.72 µM
same,GI50,BT-549 breast,< 0.01 µM
same,TGI,BT-549 breast,1.91 µM
